From patent US4806660A, “Aurone oxypropanolamines” (Pennwalt Corporation, priority 1988, dated 1989)
Structures can show the parent of a compound that is named as a salt.

Tested on: LTC4-induced contraction of guinea pig ileum
Assay: Test for Inhibition of LTC4-Induced Guinea Pig Ilial Contractions
Conditions: Cavia porcellus, LTC4 6 nanomolar, isolated guinea pig ilial strips, four replicate tissues, read-out: Percent Inhibition of Contraction at the given Concentration of Test Compound; for inhibition at 1 µM: 1 μMolar; for inhibition at 5 µM: 5 μMolar; for inhibition at 10 µM: 10 μMolar; for inhibition at 50 µM: 50 μMolar
Protocol: Test for Inhibition of LTC4 -Induced Guinea Pig Ilial Contractions The evaluation of potential anti-allergic compounds for antagonism of the in vitro effects of LTC4 is conducted according to the following procedure. Guinea pig ilial strips are obtained from recently killed animals and hung in isolated tissue baths comprising a balanced solution of salts such as Krebs' solution. After allowing for one hour equilibration of the tissue in the bath, the gram tension (G.T.) on one tissue is arbitrarily set at one. LTC4 (6 nanomolar concentration) is then added to the tissue bath. This induces a long, sustained contraction of the tissue that is measured on the strip chart recorder (the G.T. increases to about 2). After the LTC4 -induced contraction has plateaued and remains stable, increasing amounts of the test compound are added to the bath. If the compound is effective, a decrease in the G.T. (ΔG.T.) from the LTC4 -induced value is seen (e.g., from 2 to 1.5). The percent inhibition at each concentration is calculated according to the formula: [formula] Four replicate tissues are run.

Structure (SMILES)	inhibition at 1 µM	inhibition at 5 µM	inhibition at 10 µM	inhibition at 50 µM
CCCNCC(O)COc1ccc2c(c1)O/C(=C\c1ccccc1)C2=O (stereo not drawn) [Example 1, 6-[2-Hydroxy-3-(propylamino)propoxy]aurone Hydrochloride]	16%	44%	66%	135%
CC(C)NCC(O)COc1ccc2c(c1)O/C(=C\c1ccccc1)C2=O (stereo not drawn) [Example 2, 6-[2-Hydroxy-3-(isopropylamino)propoxy]aurone Hydrochloride]	23%	48%	62%	154%
O=C1/C(=C/c2ccccc2)Oc2cc(OCC(O)CNC3CC3)ccc21 (stereo not drawn) [Example 3, 6-[3-(Cyclopropylamino)-2-hydroxypropoxy]aurone Hydrochloride]	25%	48%	65%	144%
